Laboratory results published in patent US8293240B2, “Method of treating drug-resistant cancer” (The Regents of the University of Colorado, priority 2004, dated 2012).

What was measured:
[1] = system: drug sensitive L1210 cells; assay: cell-surface Fas expression by flow cytometry, L1210; assay type: cell-based
Protocol: Cell Surface Staining. Non-permeabilized cells were stained with antibodies to the cell surface receptors Fas (CD95) (Pharmingen) or with antibodies to uncoupling proteins (anti-UCP2 antibody) (Alpha Diagnostic International). Antibodies for both the isotype control and actual stain were added to the cell suspension, mixed, and then placed on ice for and incubation of 25 minutes in the dark. Subsequently the cells were centrifuged at 300×g for 5 minutes and the supernatant removed. The cells were washed one time with 100 μL of PBS/2.5% FBS and then transferred into flow cyotmetric tubes containing 500 μL of PBS/2.5% FBS for analysis.
Geometric Mean Fluorescence. When analyzing data on Cell Quest software, a geometric mean value will be given for each histogram plotted. Once the stained sample was plotted against the control (isotype or unstained), geometric mean fluorescence values were obtained for both histogram peaks. The stained control sample value was subtracted from sample to identify the actual fluorescence of the stained sample over that of the control.
Drug sensitive L1210 cells and drug resistant L1210/DDP cells were cultured with etomoxir for 24 hours (Tx indicates treatment with etomoxir). The level of cell-surface Fas was determined using fluorochrome conjugated anti-Fas antibodies and flow cytometry. The Fas levels are measured relative to a control for staining artifacts. […]

L1210 cells = assay: DCFDA staining (reactive intermediates), L1210; assay type: cell-based; details: L1210, 24 hours of incubation, FIG. 12A
Protocol: Flow Cytometry. Cells were harvested, counted, and resuspended at 10^6 cells/100 μl of PBS containing 2.5% fetal calf serum in preparation for flow cytometric analysis. Cells were stained for intracellular H202 using 6-carboxy-2′,7′-dichlorodihydrofluorescein diacetate (DCF-DA, Molecular Probes, Eugene, Oreg.). Briefly, cells were incubated at 37° with 1 mM DCF-DA for 20 minutes, washed twice in PBS containing 2.5% fetal calf serum and analyzed flow cytometrically. Mitochondrial membrane potential was assessed using Mitotracker Red (CM-H2XROS, Molecular Probes, Eugene, Oreg.). […] The cells were incubated at 37° for 20 minutes, washed twice in PBS containing 2.5% fetal calf serum and analyzed flow cytometrically. Data were acquired on a Coulter Elite Epics or Excel flow cytometer (Coulter, Hialeah, Fla.) and analyzed with CellQuest software, (Becton Dickinson, San Jose, Calif.). […] Each sample population was classified for cell size (forward scatter) and complexity (side scatter), gated on a population of interest and evaluated using 5,000 cells. […]
We measured the effects of etomoxir on metabolism by measuring mitochondrial membrane potential with a fluorescent dye (Mitotracker Red, Molecular Probes, Eugene, Oreg.) which fluoresces as a function of mitochondrial potential. […]

HL60 MDR tumor = assay: tumor volume of HL60 MDR tumor implanted in nude mice; assay type: in vivo; details: for tumor volume: 200 ug Etomoxir, 2.5 mM 2-Deoxy-D-glucose
Description: Tumor implantation. Mice were purchased from the Animal Production Program of National Cancer Institute, Frederick, Md. The animals used were Athymic Ncr-nu/nu (strain code 01B74). HL60 MDR cells were harvested and reconstituted at 1 million cells per 100 microliters of phosphate buffered saline. One million tumor cells per injection site were implanted subcutaneously on two sites of the animal's back. Treatments began at exactly seven days post tumor implantation. Tumor size/volume was monitored twice weekly using measurement calipers, with the formula Tumor Volume=π×(short diameter)^2×(long diameter)/6.
Mice experiments with fatty acid metabolism and glucose metabolism inhibitors. Fatty acid metabolism inhibitors were exemplified by etomoxir at 200 micrograms/day. Glucose metabolism inhibitors were exemplified by 2-deoxy-D-glucose at 2.5 mM in 100 microliters daily. The combination was administered daily, etomoxir at 200 micrograms and 2-deoxy-D-glucose at 2.5 mM in 100 microliters. All drugs were administered intra-peritoneally. Fluorouracil, at 20 mg per kilogram mouse, was injected intra-peritoneally once a week
HL60 MDR human leukemia cells were cultured and implanted in nude mice as described above under “Materials and Methods”. The mice were given 200 ug of Etomoxir, 2.5 mM 2-Deoxy-D-glucose, or both 200 ug of Etomoxir and 2.5 mM 2-Deoxy-D-glucose given daily by IP injection. Treatment began exactly one week after tumor implantation.
Mice were purchased from National Cancer Institute, Animal Production Program (Frederick, Md.). The animals used were Athymic Ncr-nu/nu (Strain code 01B74). HL60 MDR cells were harvested and reconstituted at 1 million cells per 100 microliters of phosphate buffered saline. One million tumor cells/per injection site were implanted subcutaneously on two sites of the animal's back. Treatments began at exactly seven days post tumor implantation. Tumor size/volume was monitored twice weekly using measurement calipers with the formula for Tumor Volume=π(short diameter)^2(long diameter)/(divided by )6. […]

For `CCOC(=O)C1(CCCCCCOc2ccc(Cl)cc2)CO1` (centres unmarked) [etomoxir, 2-(6-(4-chlorophenoxy)-hexyl)-oxirane-2-carboxylic acid ethyl ester], the “cell-surface Fas expression” value ([1]; L1210, cultured with etomoxir for 24 hours) was “significant increases in cell surface Fas”, the “Fas expression, combination with methotrexate” value ([1]; L1210, etomoxir with methotrexate, FIG. 8) was “increases the methotrexate-induced increases in Fas” and the “free radicals (reactive intermediates), DCFDA staining” value (L1210 cells) was “increase in free radicals”. The tumor volume (HL60 MDR tumor; Day 7, daily IP from one week after implantation) was 36 mm^3, the tumor volume (HL60 MDR tumor; Day 9, daily IP) was 71.73 mm^3 and the tumor volume (HL60 MDR tumor; Day 15, daily IP) was 261.35 mm^3. The tumor volume (HL60 MDR tumor; Day 21, daily IP) was 895.09 mm^3 and the “effect on tumor growth” value (HL60 MDR tumor; HL60 MDR in nude mice, 21 day period, single agent) was “increase in tumor growth”.
